Results as given in ChEMBL document CHEMBL1201862, “PubChem BioAssay data set” (2004).
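Cultured in 96-well plates, cells were exposed to test compound for 48 hours across five concentrations. Here, GI50 denotes the concentration required for 50% inhibition of growth.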 Active and inactive are the calls of the source. No stated cut-off is given here; in the data, active = GI50 up to about 1.1 µM and inactive = higher.

Legend:
Assay in all cases: NCI tumour cell line growth inhibition, 48 h
[1] = test system: NCI-H460
[2] = test system: OVCAR-4
[3] = test system: NCI/ADR-RES
[4] = test system: UACC-62
[5] = test system: SF-539
[6] = test system: NCI-H23
[7] = test system: U-251
[8] = test system: A549
[9] = test system: SK-OV-3
[10] = test system: HCT-15
[11] = test system: Hs-578T
[12] = test system: KM12
[13] = test system: MDA-MB-231
[14] = test system: MCF7
[15] = test system: A498
[16] = test system: CCRF-CEM
[17] = test system: OVCAR-3
[18] = test system: RXF 393
[19] = test system: PC-3

SMILES | GI50 [1] | GI50 [2] | GI50 [3] | GI50 [4] | GI50 [5] | GI50 [6] | GI50 [7] | GI50 [8] | GI50 [9] | GI50 [10] | GI50 [11] | GI50 [12] | GI50 [13] | GI50 [14] | GI50 [15] | GI50 [16] | GI50 [17] | GI50 [18] | GI50 [19]
CC1=C(C(=O)NNC(=O)c2ccccc2O)CC(C(=O)NNC(=O)c2ccccc2O)=C(C)N1 | 0.533 µM (active) | 9.4 µM (inactive) | 0.448 µM (active) | 0.389 µM (active) | 0.796 µM (active) | 2.1 µM (inactive) | 0.459 µM (active) | 0.48 µM (active) | 5.57 µM (inactive) | 0.649 µM | 0.197 µM (active) | 0.384 µM (active) | 5 µM (inactive) | 0.612 µM (active) | 1.79 µM (inactive) | 4.7 µM (inactive) | 1.55 µM (inactive) | – | –
O=c1c(Cl)cc2nc3ccccc3sc-2c1Cl | 18 µM (inactive) | 13.2 µM (inactive) | 21.5 µM (inactive) | 11.5 µM (inactive) | 16.7 µM (inactive) | 11 µM (inactive) | 17.6 µM (inactive) | 18.7 µM (inactive) | 21 µM (inactive) | 14.7 µM | 22 µM (inactive) | 17.6 µM (inactive) | 5.78 µM (inactive) | 14.4 µM (inactive) | 33.9 µM (inactive) | 4.67 µM (inactive) | 1.98 µM (inactive) | 18.5 µM (inactive) | –
Cc1ccc2ccccc2c1CC1S(=O)(=O)OCCOS1(=O)=O | 9.57 µM (inactive) | 11.2 µM (inactive) | 19.1 µM (inactive) | – | – | 16 µM (inactive) | 12 µM (inactive) | 13.5 µM (inactive) | – | 18.2 µM | – | 12.1 µM (inactive) | 13.6 µM (inactive) | 7.69 µM (inactive) | – | 6.31 µM (inactive) | 6.89 µM (inactive) | – | 11.2 µM (inactive)
CN(Cc1ccccc1)C(=S)S [SODIUM BENZYL(METHYL)CARBAMODITHIOATE] | 40.1 µM (inactive) | 28.4 µM (inactive) | 38.1 µM (inactive) | 40.8 µM (inactive) | – | 45.1 µM (inactive) | 38 µM (inactive) | 33.5 µM (inactive) | > 100 µM (inactive) | 34 µM | 78.7 µM (inactive) | 56.1 µM (inactive) | 88.5 µM (inactive) | 45.5 µM (inactive) | > 100 µM (inactive) | 16.5 µM (inactive) | 32 µM (inactive) | 54.5 µM (inactive) | –
N#CC1(c2nc3ccccc3o2)C(=O)C(=O)N(c2ccc(Cl)c(Cl)c2)C(=O)C1=O | > 100 µM (inactive) | 58.6 µM (inactive) | – | – | – | > 100 µM (inactive) | – | > 100 µM (inactive) | – | 74.6 µM | – | > 100 µM (inactive) | – | – | – | 48 µM (inactive) | > 100 µM (inactive) | > 100 µM (inactive) | –
CC(=O)OC1=C2CC[C@@H]3C(CC[C@@]4(C)C3CC[C@@H]4OC(C)=O)[C@@]2(C)CC(C#N)C1=O (stereo not given in full) | 24.4 µM (inactive) | 24.4 µM (inactive) | – | 12.8 µM (inactive) | 30.3 µM (inactive) | 27.9 µM (inactive) | 27.4 µM (inactive) | 30.8 µM (inactive) | 18.3 µM (inactive) | 28.9 µM | – | 30.3 µM (inactive) | – | – | 6.01 µM (inactive) | 20.2 µM (inactive) | 21.2 µM (inactive) | 23.4 µM (inactive) | –
CC(=O)O[C@H]1CC(C)(C)C(=C=C/C(C)=C/C=C/C=C/C=C(C)/C=C2C=C(/C=C/[C@@]34O[C@]3(C)C[C@@H](O)CC4(C)C)C(=O)O/2)[C@](C)(O)C1 | 8.09 µM (inactive) | 4.75 µM (inactive) | 5.93 µM (inactive) | 7.93 µM (inactive) | 17.8 µM (inactive) | 5.14 µM (inactive) | 10.7 µM (inactive) | 11.5 µM (inactive) | – | 11 µM | – | 5.4 µM (inactive) | 31.1 µM (inactive) | 3.81 µM (inactive) | 24.7 µM (inactive) | 2.94 µM (inactive) | 10.1 µM (inactive) | 4.01 µM (inactive) | 4.22 µM (inactive)
